Experimental data taken from patent US20200207734A1, “HETEROCYCLIC COMPOUND AND USE THEREOF” (Takeda Pharmaceutical Company Limited, priority 2017, published 2020).

Each compound was assayed against T1, human orexin type 2 receptor (Homo sapiens, UniProt O43614) (assay: Measurement of orexin type 2 receptor agonist activity (calcium fluorescence, CHO cells expressing hOX2R)). Conditions: test compound 3 μM; CHO cells expressing human OX2 receptor; DMSO = 0%, orexin A (human) = 100%.
T1 construct: human orexin type 2 receptor cDNA was inserted into pcDNA3.1(+) plasmid vector (Invitrogen); expressed in transfected cells
T1 sequence (O43614 1-444): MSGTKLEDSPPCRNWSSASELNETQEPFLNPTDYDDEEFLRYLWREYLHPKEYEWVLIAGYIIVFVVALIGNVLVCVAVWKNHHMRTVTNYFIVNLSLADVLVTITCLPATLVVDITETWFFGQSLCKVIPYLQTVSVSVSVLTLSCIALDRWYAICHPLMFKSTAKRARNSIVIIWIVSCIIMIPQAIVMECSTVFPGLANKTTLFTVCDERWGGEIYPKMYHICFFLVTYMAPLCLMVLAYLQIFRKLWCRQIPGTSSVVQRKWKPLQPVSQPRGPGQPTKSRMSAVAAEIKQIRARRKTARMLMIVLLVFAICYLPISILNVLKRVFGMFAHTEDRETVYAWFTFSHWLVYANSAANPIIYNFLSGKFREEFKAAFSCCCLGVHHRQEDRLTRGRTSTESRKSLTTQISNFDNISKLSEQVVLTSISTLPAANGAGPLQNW
Type: cell-based
Method in brief: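 CHO-dhfr cells stably expressing hOX2R, loaded with Fluo-4 AM in HBSS/20 mM HEPES/0.1% BSA with probenecid, then given test compound. Calcium fluorescence was read for about 2 min 40 sec. Activity (%) was scaled between DMSO (0%) and 10 nM final human orexin A (100%).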

SMILES | OX2R agonist activity (3 μM, %) [%]
CS(=O)(=O)N[C@H]1CCN(C(=O)C23CC(C2)C3)[C@H]1Cc1cccc(-c2cccc(F)c2)c1 [Example 306, N-((2S,3S)-1-(bicyclo[1.1.1]pent-1-ylcarbonyl)-2-((3′-fluorobiphenyl-3-yl)methyl)pyrrolidin-3-yl)methanesulfonamide] | 100
CS(=O)(=O)N[C@H]1CCN(C(=O)C23CC(C2)C3)[C@H]1Cc1cccc(-c2cc(F)cc(F)c2)c1 [Example 307, N-((2S,3S)-1-(bicyclo[1.1.1]pent-1-ylcarbonyl)-2-((3′,5′-difluorobiphenyl-3-yl)methyl)pyrrolidin-3-yl)methanesulfonamide] | 102
CS(=O)(=O)N[C@H]1CCN(C(=O)C2(O)CCC2)[C@H]1Cc1cccc(-c2cccc(F)c2)c1 [Example 308, N-((2S,3S)-2-((3′-fluorobiphenyl-3-yl)methyl)-1-((1-hydroxycyclobutyl)carbonyl)pyrrolidin-3-yl)methanesulfonamide] | 107
CS(=O)(=O)N[C@H]1CCN(C(=O)C2(C(F)(F)F)CCC2)[C@H]1Cc1cccc(-c2cccc(F)c2)c1 [Example 309, N-((2S,3S)-2-((3′-fluorobiphenyl-3-yl)methyl)-1-((1-(trifluoromethyl)cyclobutyl)carbonyl)pyrrolidin-3-yl)methanesulfonamide] | 101
CS(=O)(=O)N[C@H]1CCN(C(=O)C2CCC2)[C@H]1Cc1cccc(-c2cc(F)cc(F)c2)c1 [Example 310, N-((2S,3S)-1-(cyclobutylcarbonyl)-2-((3′,5′-difluorobiphenyl-3-yl)methyl)pyrrolidin-3-yl)methanesulfonamide] | 102
Cc1cccc(-c2cccc(C[C@H]3[C@@H](NS(C)(=O)=O)CCN3C(=O)C3CCC3)c2)c1 [Example 311, N-((2S,3S)-1-(cyclobutylcarbonyl)-2-((3′-methylbiphenyl-3-yl)methyl)pyrrolidin-3-yl)methanesulfonamide] | 103
COCS(=O)(=O)N[C@H]1CCN(C(=O)C2CCC2)[C@H]1Cc1cccc(-c2cccc(F)c2)c1 [Example 312, N-((2S,3S)-1-(cyclobutylcarbonyl)-2-((3′-fluorobiphenyl-3-yl)methyl)pyrrolidin-3-yl)-1-methoxymethanesulfonamide] | 103
CS(=O)(=O)N[C@H]1CCN(C(=O)N2CCC2)[C@H]1Cc1cccc(-c2cccc(F)c2)c1 [Example 313, N-((2S,3S)-1-(azetidin-1-ylcarbonyl)-2-((3′-fluorobiphenyl-3-yl)methyl)pyrrolidin-3-yl)methanesulfonamide] | 100
COC1(C(=O)N2CC[C@H](NS(C)(=O)=O)[C@@H]2Cc2cccc(-c3cccc(F)c3)c2)CCC1 [Example 314, N-((2S,3S)-2-((3′-fluorobiphenyl-3-yl)methyl)-1-((1-methoxycyclobutyl)carbonyl)pyrrolidin-3-yl)methanesulfonamide] | 107
CS(=O)(=O)N[C@H]1CCN(C(=O)C2CCC2)[C@H]1Cc1csc(-c2cccc(F)c2)n1 [Example 320, N-((2S,3S)-1-(cyclobutylcarbonyl)-2-((2-(3-fluorophenyl)-1,3-thiazol-4-yl)methyl)pyrrolidin-3-yl)methanesulfonamide] | 103
O=C(C1CCC1)N1CC[C@H](NS(=O)(=O)C2CC2)[C@@H]1Cc1csc(-c2ccccc2)n1 [Example 321, N-((2S,3S)-1-(cyclobutylcarbonyl)-2-((2-phenyl-1,3-thiazol-4-yl)methyl)pyrrolidin-3-yl)cyclopropanesulfonamide] | 104
COCS(=O)(=O)N[C@H]1CCN(C(=O)C2CCC2)[C@H]1Cc1cccc(-c2ccccc2)c1 [Example 324, N-((2S,3S)-2-(biphenyl-3-ylmethyl)-1-(cyclobutylcarbonyl)pyrrolidin-3-yl)-1-methoxymethanesulfonamide] | 103
